The text below walks through data of patent US20040038367A1, “Novel xyloglucan oligosaccharide-degrading enzyme, polynucleotide encoding the enzyme, and method of preparing the enzyme” (NATIONAL INSTITUTE OF ADVANCED INDUSTRIAL SCIENCE AND …, priority 2002, published 2004).

Molecules are shown by their SMILES.

This assay has as its target T1, xyloglucan oligosaccharide-degrading enzyme (Geotrichum sp., UniProt Q8J0D2).
T1 construct: made in house; host or cells: Geotrichum sp. strain M128 (natural producer; enzyme purified, not recombinant)
The assay is described as follows: Inhibition of the enzyme activity by metal ions. In kind it is biochemical, Geotrichum sp. strain M128. The settings on record: concentration of 1 mM or more.

On to `[Hg+2]` [mercury ion], for which the “inhibition of the activity of the enzyme” value is “strongly inhibited”.
